Results on eight compounds are retold here after patent publication US7977358B2, “Pyrazol derivatives” (Hoffmann-La Roche Inc., priority 2007, dated 2011).

pIC50: −log10 of the molar value.

For this test, the target named is T1, human chemokine receptor 2 isoform B (CCR2B) (Homo sapiens, UniProt P41597).
T1 construct: host or cells: CHOK1-CCR2B-A5 (CHO-K1) cells
T1 sequence (P41597 1-360 isoform P41597-2): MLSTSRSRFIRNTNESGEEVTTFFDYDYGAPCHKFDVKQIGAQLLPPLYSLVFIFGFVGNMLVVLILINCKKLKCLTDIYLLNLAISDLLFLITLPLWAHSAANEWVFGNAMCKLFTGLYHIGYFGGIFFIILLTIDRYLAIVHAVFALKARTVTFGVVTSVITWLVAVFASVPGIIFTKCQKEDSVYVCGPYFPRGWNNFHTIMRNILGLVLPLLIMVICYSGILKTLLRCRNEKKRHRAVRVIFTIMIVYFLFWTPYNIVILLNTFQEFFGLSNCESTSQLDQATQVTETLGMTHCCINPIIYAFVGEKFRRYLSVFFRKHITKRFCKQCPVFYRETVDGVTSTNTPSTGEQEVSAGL
Put plainly: Calcium mobilization assay. The conditions noted are these: CHOK1-CCR2B-A5 cells, 20 nM MCP-1, FLIPR. Format: cell-based. On the procedure: Calcium Mobilization Assay
CHOK1-CCR2B-A5 cells (from Euroscreen) stably overexpressing the human chemokine receptor 2 isoform B were cultured in Nutrient Hams F12 medium supplemented with 5% FBS, 100 U/ml penicillin, 100 μg/ml streptomycin, 400 μg/ml G418 and 5 μg/ml puromycin. For the assay cells were grown overnight in 384-well black clear flat bottom polystyrene plates (Costar) at 37° C. at 5% CO2. After washing with DMEM, 20 mM Hepes, 2.5 mM probenecid, 0.1% BSA (DMEM assay buffer) cells were loaded with 4 μM Fluo-4 in the same DMEM assay buffer for 2 hours at 30° C. Excess dye was removed and cells were washed with DMEM assay buffer. 384-well compound plates were prepared with DMEM assay buffer/0.5% DMSO with or without various concentrations of test compounds. Usually compounds were tested for agonist and antagonist activity.
Test compounds were added to the assay plate and agonist activity was monitored as fluorescence for 80 seconds with a FLIPR (488 nm excitation; 510-570 nm emission; Molecular Devices). After 20-30 min. of incubation at 30° C., 20 nM MCP-1 (R&D; Roche) was added and fluorescence was monitored again for 80 seconds. Increases in intracellular calcium are reported as maximum fluorescence after agonist exposure minus basal fluorescence before exposure. Antagonist activity is indicated as inhibitor concentration required for 50% inhibition of specific calcium increases.

`O=C(c1c(C2CC2)nn(-c2cccc(OC(F)(F)F)c2)c1C1CC1)N1CCC(N2CCCC2)CC1` [Example 76, [3,5-Dicyclopropyl-1-(3-trifluoromethoxy-phenyl)-1H-pyrazol-4-yl]-(4-pyrrolidin-1-yl-piperidin-1-yl)-methanone]: the pIC50 was 6.91.

With `Cc1c(C(=O)N2CCC(N3CCC[C@H]3CO)CC2)c(-c2ccncc2)nn1-c1cccc(OC(F)(F)F)c1` [Example 161, [4-((S)-2-Hydroxymethyl-pyrrolidin-1-yl)-piperidin-1-yl]-[5-methyl-3-pyridin-4-yl-1-(3-trifluoromethoxy-phenyl)-1H-pyrazol-4-yl]-methanone], the pIC50 was 7.01.

Turning to `Cc1nn(-c2cccc(OC(F)(F)F)c2)c(C)c1C(=O)N1CCC(N2CCCC2C)C1` (centres unmarked) [Example 122, [3,5-Dimethyl-1-(3-trifluoromethoxy-phenyl)-1H-pyrazol-4-yl]-(2-methyl-[1,3′]bipyrrolidinyl-1′-yl)-methanone], the pIC50 is 6.14.

With `Cc1nn(-c2cccc(C(F)(F)F)c2)c(C)c1C(=O)N1CCC(N2CCOCC2)CC1` [Example 83, [3,5-Dimethyl-1-(3-trifluoromethyl-phenyl)-1H-pyrazol-4-yl]-(4-morpholin-4-yl-piperidin-1-yl)-methanone], the negative logarithm of the IC50 (pIC50) was 6.18.

Consider `Cc1nn(-c2cccc(OC(F)(F)F)c2)c(C2CC2)c1C(=O)N1CCC(N2CCC3(C2)NC(=O)NC3=O)CC1` (centres unmarked) [Example 139, 7-{1-[5-Cyclopropyl-3-methyl-1-(3-trifluoromethoxy-phenyl)-1H-pyrazole-4-carbonyl]-piperidin-4-yl}-1,3,7-triaza-spiro[4.4]nonane-2,4-dione], for which the pIC50 is 6.85.

Consider `CC(=O)N[C@@H]1CCN(C2CCN(C(=O)c3c(C)nn(-c4cccc(OC(F)(F)F)c4)c3C)CC2)C1` [Example 119, N-((R)-1-{1-[3,5-Dimethyl-1-(3-trifluoromethoxy-phenyl)-1H-pyrazole-4-carbonyl]-piperidin-4-yl}-pyrrolidin-3-yl)-acetamide], for which the pIC50 is 6.51.

As for `Cc1nn(-c2cccc(OC(F)(F)F)c2)c(C2CC2)c1C(=O)N1CCC(N2C[C@@H](O)CC2C)CC1` (stereo in doubt) [Example 138, [5-Cyclopropyl-3-methyl-1-(3-trifluoromethoxy-phenyl)-1H-pyrazol-4-yl]-[4-((2R,4S)-4-hydroxy-2-methyl-pyrrolidin-1-yl)-piperidin-1-yl]-methanone], the pIC50 is 6.81.

In the case of `CCN(CC)C1CCN(C(=O)c2c(C)nn(-c3cccc(/C=C/c4ccc(Cl)cc4)c3)c2C)C1` (centres unmarked) [Example 29, (1-{3-[(E)-2-(4-Chloro-phenyl)-vinyl]-phenyl}-3,5-dimethyl-1H-pyrazol-4-yl)-(3-diethylamino-pyrrolidin-1-yl)-methanone], the pIC50 was 7.00.
